Assay results reported in patent US20220193067A1, “QUINOLINE COMPOUND OR PHARMACEUTICALLY ACCEPTABLE SALT THEREOF FOR TREATING EWING'S SARCOMA” (CHIA TAI TIANQING PHARMACEUTICAL GROUP CO., LTD., priority 2019, published 2022).
Where a name gives a salt, the structure may show the parent alone.

Legend:
[1] = test system: human Ewing's sarcoma cells A673; assay: Effect on growth of Ewing's sarcoma, A673 subcutaneous xenograft in nude mice; type: in vivo, BALB/cA-nude mice; conditions: 6.25 mg/kg orally daily for 14 consecutive days; A673 subcutaneous tumors in nude mice
Experimental: The dihydrochloride salt of the compound of formula I was dissolved in water to a concentration of 25 mg/mL and then further diluted with distilled water to a concentration of […].
BALB/cA-nude mice, feeding environment: SPF grade. Nude mice were inoculated subcutaneously with human Ewing's sarcoma cells A673, and randomly grouped (d0) after tumors grew to 100-250 mm^3.
The dihydrochloride of the compound of formula I (a dosage of 6.25 mg/kg) was orally administered daily to the animals in a volume of 10 mL/kg for 14 consecutive days. The tumor volume was measured 2-3 times per week, the mice were weighed, and the data was recorded.
The equation for calculating tumor volume (V) is as follows: V=½×a×b^2, where a and b represent length and width, respectively.
T/C (%)=(T-T0)/(C-C0)×100%, where T and C represent the tumor volumes of the administration group mice and the control group (i.e., solvent group) mice, respectively, at the end of the experiment; T0 and C0 represent the tumor volumes of administration group mice and the control group (i.e., solvent group) mice, respectively, at the time of grouping and administration (d0).
The equation for calculating relative tumor volume (RTV) after administration is as follows: RTV=TV/TV0 (TV represents tumor volume at each measurement after administration, and TV0 represents tumor volume at the time of grouping and administration (d0)).

[2] = test system: Human Ewing's sarcoma A673 cells; assay: Apoptosis of Ewing's sarcoma cells, Annexin-V-FITC/PI flow cytometry; type: cell-based; conditions: different concentrations (0-30 μg/mL) added to vincristine+doxorubicin+cyclophosphamide; 24 h
Experimental: Human Ewing's sarcoma A673 cells in logarithmic growth phase were added at 10^5 cells/well to a DMEM complete culture medium containing 2 μg/mL vincristine, 75 μg/mL doxorubicin and 500 μg/mL cyclophosphamide, and to a DMEM complete culture medium containing the dihydrochloride of the compound of formula I (at concentrations of 0, 0.005, 0.1, 0.05, 0.1, 0.5, 1.5, 4, 12 and 30 μg/mL), 2 μg/mL vincristine, 75 μg/mL doxorubicin and 500 μg/mL cyclophosphamide. The resulting mixtures were incubated for 24 h, and then the cells were collected, centrifuged at 1000 r/min for 3-5 min, and washed with PBS. Then the apoptosis of the cells was detected using an Annexin-V-FITC/PI apoptosis detection kit. The cells were resuspended in 100 μL of 1×Binding buffer solution, and 5 μL of Annexin-V-FITC and 2.5 μL of PI dye were added. The mixture was shaken and mixed well in the absence of light, reacted for 15 min at room temperature, added with 300 μL of 1×Binding buffer solution, mixed well, and then subjected to detection by a flow cytometer. The test was repeated 3 times.

[3] = test system: Human Ewing's sarcoma cell line A673; assay: Proliferation of Ewing's sarcoma cells (MTT method), combination with VAC-2 regimen; type: cell-based; conditions: combined with 2 μg/mL vincristine, 75 μg/mL doxorubicin and 500 μg/mL cyclophosphamide
Experimental: The test drugs were dissolved in dimethyl sulfoxide to prepare a 100 mmol/L mother solution, which was stored at −20° C. for later use. When in use, the mother solution was prepared with a DMEM serum culture medium to reach a required concentration; vincristine, doxorubicin and cyclophosphamide were mixed (VAC-2 regimen), and the dihydrochloride diluent of the compound of formula I was mixed with vincristine, doxorubicin and cyclophosphamide. […]
The ICso value can be measured by a conventional method in the art (e.g., MTT method), or can be measured by the following method (MTT method):
Cells in logarithmic growth phase were inoculated in a 96-well culture plate (180 μL/well, 10^5 cells/well); after 2 h of incubation at 37° C./5% CO2, the cells were added with the dihydrochloride of the compound of formula I (solutions at gradient concentrations of 0, 0.005, 0.1, 0.05, 0.1, 0.5, 1.5, 4, 12 and 30 μg/mL), 2 μg/mL vincristine, 75 μg/mL doxorubicin and 500 μg/mL cyclophosphamide, and the resulting mixtures were incubated. […] The next day, OD values were measured at 570 nm and 630 nm wavelengths using a microplate reader (SPECTRA max 190) (calculated by subtracting OD values measured at 630 nm (the control wavelength) from all OD values measured at 570 nm), and the cell growth inhibition rate was calculated according to the following equation: […]

Ewing's sarcoma patients = assay: Clinical trial of capsule combined with VAC-2 regimen in Ewing's sarcoma patients; type: in vivo, human; conditions: 12 mg capsule orally once daily, 2 weeks on/1 week off
Experimental: A clinical trial was carried out in Ewing's sarcoma patients with measurable lesions (according to RECIST 1.1) for the combination of the dihydrochloride capsule of the compound of formula I and a second therapeutic agent (VAC-2 regimen). Patients in the patient group comprised patients who had previously received chemotherapy and those who had not. The patients were orally administered with 12 mg of the dihydrochloride capsule of the compound of formula I once daily (2 weeks of treatment and 1 week of interruption constitute one treatment cycle), and meanwhile the patients were treated with the VAC-2 regimen: intravenous infusion of 2 mg of vincristine on day 1, intravenous infusion of 75 mg/m^2 of doxorubicin on day 1, and intravenous infusion of 1200 mg/m^2 of cyclophosphamide on day 1 (28 days constitute one cycle). The evaluation endpoints included: efficacy endpoints, e.g., progression-free survival (PFS), objective response rate (ORR), duration of response (DOR), stable disease (SD) rate, clinical benefit rate (CBR), overall survival (OS), etc.; safety endpoints, e.g., incidence and severity of adverse events; and quality of life.

For `COc1cc2c(Oc3ccc4[nH]c(C)cc4c3F)ccnc2cc1OCC1(N)CC1` [1-1-[[[4-(4-fluoro-2-methyl-1H-indol-5-yl)oxy-6-methoxyquinolin-7-yl]oxy]methyl]cyclopropylamine dihydrochloride], the “growth of Ewing's sarcoma” value [1] was “significantly inhibit the growth of Ewing's sarcoma”, the “apoptosis caused by the VAC-2 regimen” value [2] was “remarkably enhance apoptosis” and the “inhibition effect on proliferation of A673 cells” value [3] was “definite inhibition effect”. The overall survival (Ewing's sarcoma patients) was “can prolong overall survival” and the “treatment of Ewing's sarcoma (efficacy)” value (Ewing's sarcoma patients) was “effective for treatment of Ewing's sarcoma”.
